Data on 3 molecules can be found in US20220193064A1, “MEDICAMENT FOR TREATING CANCER” (CHIOME BIOSCIENCE INC., priority 2019, published 2022).

The subject of test [1] is unresectable hepatocellular carcinoma. The conditions noted are these: cited from earlier work.
In test [2] the test system is Hep3B xenograft model. The experiment in a line: combined effect of lenvatinib and anti-hDLK-1 antibody on tumorigenesis inhibitory activity, Hep3B xenograft model. The test is classed as in vivo, NOD/ShiJic-scidJcl mice. The following applies: for tumor weight: tumors collected on final day of observation (Day 38). The source says:
Using a Hep3B xenograft model, lenvatinib mesylate and anti-hDLK-1 antibody were studied for their combined effect on tumorigenesis inhibitory activity.
(§1) The lenvatinib mesylate used here was commercially available (hereinafter simply referred to as “lenvatinib” in this example). The anti-hDLK-1 antibody used here was “HuBA-1-3D-1-A24G/T73K antibody” found in WO2014/054820 (hereinafter simply referred to as “HuBA-1-3D antibody” in this example), and DNA encoding this antibody protein was constructed in accordance with the procedures shown in WO2014/054820 (see the Example section in the specification), followed by production and preparation of this antibody protein in host cells using the GlymaxX® technology (ProBioGen AG; see https://www.probiogen.de/genetic-glyco-engineering-adcc-glymaxx.html). It should be noted that the HuBA-1-3D-1-A24G/T73K antibody used here has an H chain V region consisting of the amino acid sequence shown in SEQ ID NO: 36 and an L chain V region consisting of the amino acid sequence shown in SEQ ID NO: 46.
1×10^6 Hep3B cells were transplanted subcutaneously into the right flank of female NOD/ShiJic-scidJcl mice at 6 to 7 weeks of age (Day 0). At the stage where the mean tumor volume reached around 100 mm^3 (Day 14), these mice were divided into the following groups: the control group (N=8, 103.5±18.1 mm^3), the group receiving lenvatinib (3 mg/kg body weight) (N=8, 102.8±16.8 mm^3), the group receiving HuBA-1-3D antibody (1 mg/kg body weight) (N=8, 102.7±15.0 mm^3), and the group receiving both lenvatinib (3 mg/kg body weight) and HuBA-1-3D antibody (1 mg/kg body weight) (N=8, 102.5±12.5 mm^3) (hereinafter referred to as the group receiving lenvatinib+HuBA-1-3D antibody). For a period of 12 days starting from Day 14, HuBA-1-3D antibody was administered twice a week (4 times in total; Days 14, 18, 22 and 25), and lenvatinib was administered 5 times a week (administration for 5 days and withdrawal for 2 days) (10 times in total; Days 14, 15, 16, 17, 18, 21, 22, 23, 24 and 25). The tumor volume was measured at a frequency of twice a week, and an animal whose tumor volume reached 1500 mm^3 was excluded from observation.

The test system of test [3] is HepG2 xenograft model. The experiment in a line: combined effect of lenvatinib and anti-hDLK-1 antibody on tumorigenesis inhibitory activity, HepG2 xenograft model. Format: in vivo, NOD/ShiJic-scidJcl mice.
Source text: Using a HepG2 xenograft model, lenvatinib mesylate and anti-hDLK-1 antibody were studied for their combined effect on tumorigenesis inhibitory activity.
as §1
5×10^6 HepG2 cells were transplanted subcutaneously into the right flank of female NOD/ShiJic-scidJcl mice at 7 weeks of age (Day 0). At the stage where the mean tumor volume reached around 100 mm^3 (Day 10), these mice were divided into the following groups: the control group (N=8, 118.4±15 6 mm^3), the group receiving lenvatinib (10 mg/kg body weight) (N=8, 118.8±15.2 mm^3), the group receiving HuBA-1-3D antibody (1 mg/kg body weight) (N=8, 119.8±12.9 mm^3), and the group receiving both lenvatinib (10 mg/kg body weight) and HuBA-1-3D antibody (1 mg/kg body weight) (N=8, 119.7±13.4 mm^3) (hereinafter referred to as the group receiving lenvatinib+HuBA-1-3D antibody). For a period of 12 days starting from Day 10, HuBA-1-3D antibody was administered twice a week (4 times in total; Days 10, 13, 17 and 21), and lenvatinib was administered 5 times a week (administration for 5 days and withdrawal for 2 days) (10 times in total; Days 10, 11, 12, 13, 14, 17, 18, 19, 20 and 21). The tumor volume was measured at a frequency of twice a week, and an animal whose tumor volume reached 1500 mm^3 was excluded from observation.

Test [4] concerns Hep3B xenograft model. Nature of the test: sensitivity to lenvatinib in Hep3B xenograft therapeutic model. The conditions noted are these: Day 29; for tumor volume (mean±standard deviation): 5 times a week, N=8; for tumor volume ratio (T/C) relative to the vehicle group: P<0.05. The test is classed as in vivo, NOD/SCID mice. An excerpt: (§2) Two cell lines (Hep3B and HepG2) derived from human hepatocellular carcinoma were compared for their sensitivity to lenvatinib mesylate (commercially available; hereinafter simply referred to as “lenvatinib” in this example) in xenograft therapeutic models.
In a Hep3B xenograft model, NOD/SCID mice were transplanted with the cells subcutaneously, and then divided into groups of 8 mice each at the time when the mean tumor volume exceeded 100 mm^3 (Day 14), and administration was started on the same day. The administration was conducted at a dose of 10 μL/g per mouse body weight via the oral route with an oral sonde, 5 times a week (administration for 5 days and withdrawal for 2 days) (12 times in total; Days 14, 15, 16, 17, 18, 21, 22, 23, 24, 25, 28 and 29) until the final day of the test. The tumor volume (mean±standard deviation) at 29 days after transplantation (Day 29; the final day of the test) was 1050.3±553.8 mm^3 in the group receiving vehicle (water for injection) (N=8), 400.9±160.9 mm^3 in the group receiving lenvatinib (3 mg/kg) (N=8), 200.2±133.3 mm^3 in the group receiving lenvatinib (10 mg/kg) (N=8), and 136.2±33.8 mm^3 in the group receiving lenvatinib (30 mg/kg) (N=8). The tumor volume ratio (T/C) relative to the vehicle group on Day 29 was 38.2% (P<0.05), 19.1% (P<0.05) and 13.0% (P<0.05), respectively, in the groups receiving lenvatinib (3, 10 and 30 mg/kg) (FIG. 3A).

The subject of test [5] is HepG2 xenograft model. Nature of the test: sensitivity to lenvatinib in HepG2 xenograft therapeutic model. Format: in vivo, NOD/SCID mice. The following applies: Day 28; for tumor volume (mean±standard deviation): 5 times a week, N=8; for tumor volume ratio (T/C) relative to the vehicle group: P<0.05.
Source text: as §2
NOD/SCID mice were transplanted with the cells subcutaneously, and then divided into groups of 8 mice each at the time when the mean tumor volume exceeded 100 mm^3 (Day 10), and administration was started on the same day. The administration was conducted at a dose of 10 μL/g per mouse body weight via the oral route with an oral sonde, 5 times a week (administration for 5 days and withdrawal for 2 days) (14 times in total; Days 10, 11, 12, 13, 14, 17, 18, 19, 20, 21, 24, 25, 26 and 27) until the day before the final day of the test. The tumor volume (mean±standard deviation) at 28 days after transplantation (Day 28; the final day of the test) was 1163.0±205.1 mm^3 in the group receiving vehicle (water for injection) (N=8), 892.5±220.7 mm^3 in the group receiving lenvatinib (3 mg/kg) (N=8), 506.8±215.7 mm^3 in the group receiving lenvatinib (10 mg/kg) (N=8), and 380.0±146.8 mm^3 in the group receiving lenvatinib (30 mg/kg) (N=8). The tumor volume ratio (T/C) relative to the vehicle group on Day 28 was 76.7% (P<0.05), 43.6% (P<0.05) and 32.7% (P<0.05), respectively, in the groups receiving lenvatinib (3, 10 and 30 mg/kg) (FIG. 3B).

Setting [6] is: primary therapeutic agent, unresectable hepatocellular carcinoma, whole treatment group.
The mark [7] stands for this setting: Day 25 (final day of administration), lenvatinib 3 mg/kg 5 times a week, HuBA-1-3D antibody 1 mg/kg twice a week, N=8.
[8] abbreviates: Day 31 (6 days after completion of administration), lenvatinib 3 mg/kg, HuBA-1-3D antibody 1 mg/kg.
Setting [9] is: Day 38 (13 days after completion of administration), lenvatinib 3 mg/kg, HuBA-1-3D antibody 1 mg/kg.
The mark [10] stands for this setting: lenvatinib 3 mg/kg, HuBA-1-3D antibody 1 mg/kg.
Setting [11] is: Day 21 (final day of administration), lenvatinib 10 mg/kg 5 times a week, HuBA-1-3D antibody 1 mg/kg twice a week, N=8.
The mark [12] stands for this setting: Day 31 (10 days after completion of administration), lenvatinib 10 mg/kg, HuBA-1-3D antibody 1 mg/kg, N=8.
The mark [13] stands for this setting: Day 34 (13 days after completion of administration), lenvatinib 10 mg/kg, HuBA-1-3D antibody 1 mg/kg.

Like-named read-outs stand apart in the source and are kept apart here.

For the molecule `CNC(=O)c1cc(Oc2ccc(NC(=O)Nc3ccc(Cl)c(C(F)(F)F)c3)cc2)ccn1` [sorafenib], the efficacy in test [1] (setting [6]) is on record as 12.4%.
With `COc1cc2nccc(Oc3ccc(NC(=O)NC4CC4)c(Cl)c3)c2cc1C(N)=O` [lenvatinib, 4-[3-chloro-4-(cyclopropylcarbamoylamino)phenoxy]-7-methoxy-quinoline-6-carboxamide], the tumor volume in test [2] (setting [7]) is listed as 268.1±175.7 mm^3; in test [2] (setting [8]), 572.2±456.0 mm^3; in test [2] (setting [9]), 1148.5±591.0 mm^3; in test [3] (setting [11]) it was 326.2±188.7 mm^3; in test [3] (setting [12]) it was 817.4±583.4 mm^3; in test [3] (setting [13]), 796.2±461.7 mm^3. Moreover, the tumor weight in test [2] (setting [10]) is 841.1 ± 515.8 mg. Further, the “animals sacrificed whose tumor volume exceeded 1500 mm^3” value in test [3] (Day 31, lenvatinib 10 mg/kg) is “one of the 8 animals”. Also, the “tumor volume (mean±standard deviation)” value in test [4] (lenvatinib 3 mg/kg oral) worked out at 400.9±160.9 mm^3; in test [4] (lenvatinib 10 mg/kg oral), 200.2±133.3 mm^3; in test [4] (lenvatinib 30 mg/kg oral), 136.2±33.8 mm^3; in test [5] (lenvatinib 3 mg/kg oral) it was 892.5±220.7 mm^3; in test [5] (lenvatinib 10 mg/kg oral), 506.8±215.7 mm^3; in test [5] (lenvatinib 30 mg/kg oral) it was 380.0±146.8 mm^3. The “tumor volume ratio (T/C) relative to the vehicle group” value in test [4] (lenvatinib 3 mg/kg) is on record as 38.2%; in test [4] (lenvatinib 10 mg/kg), 19.1%; in test [4] (lenvatinib 30 mg/kg), 13.0%; in test [5] (lenvatinib 3 mg/kg), 76.7%; in test [5] (lenvatinib 10 mg/kg), 43.6%; in test [5] (lenvatinib 30 mg/kg), 32.7%. The efficacy in test [1] (Japanese population (of 81 patients) assigned to the lenvatinib group) is 46.9%; in test [1] (setting [6]), 40.6%.

B1: HuBA-1-3D antibody: humanized anti-hDLK-1 antibody from WO2014/054820; H chain V region SEQ ID NO: 36, L chain V region SEQ ID NO: 46; GlymaxX produced (antibody, V domains shown)
VH: QVQLVQSGAEVKKPGASVKVSCKGSGYTFTDYAMHWVRQAPGQGLEWIGVISTYYGNTNYNQKFKGKATMTVDKSTSTAYMELRSLRSDDTAVYYCARGGLREYYYAMDYWGQGTMVTVSS
VL: DIVMTQSPDSLAVSLGERATINCKSSQSLLNSSNQKNYLAWYQQKPGQPPKLLVYFASTRESGVPDRFSGSGSGTDFTLTISSLQAEDVAVYYCQQHYSTPPTFGQGTKLEIK
modifications: GlymaxX glycoengineered
notes: humanized anti-hDLK-1 antibody from WO2014/054820; GlymaxX produced
Take B1: the tumor volume in test [2] (setting [7]) was 144.6±111.2 mm^3; in test [2] (setting [8]), 92.9±79.3 mm^3; in test [2] (setting [9]) it was 402.3±364.4 mm^3; in test [3] (setting [11]), 116.4±42.4 mm^3; in test [3] (setting [12]), 394.0±169.8 mm^3; in test [3] (setting [13]), 584.1±241.9 mm^3. For the same molecule, in test [2] (setting [10]), the tumor weight is 392.3 ± 412.9 mg.
